For orientation: IC50 means the concentration that gives 50% inhibition.

Assay [1] deals with A549. The assay is described as follows: Cytotoxicity against human A549 cells assessed as cell viability measured by MTT assay. It is filed as functional, cell-based.
For a further assay, the system named is WI-38. The assay is described as follows: Cytotoxicity against human WI-38 cells assessed as cell viability measured by MTT assay. Type of assay: ADME, cell-based. (In general: Tetrazolium assays rely on reduction of a dye to a coloured formazan, in cell work by metabolically active cells.)
In assay [2] the target is Platelet-derived growth factor receptor beta (Homo sapiens, UniProt P09619). Kind of assay: Inhibition of PDGFRbeta (unknown origin).
Platelet-derived growth factor receptor beta, sequence (P09619 whole entry): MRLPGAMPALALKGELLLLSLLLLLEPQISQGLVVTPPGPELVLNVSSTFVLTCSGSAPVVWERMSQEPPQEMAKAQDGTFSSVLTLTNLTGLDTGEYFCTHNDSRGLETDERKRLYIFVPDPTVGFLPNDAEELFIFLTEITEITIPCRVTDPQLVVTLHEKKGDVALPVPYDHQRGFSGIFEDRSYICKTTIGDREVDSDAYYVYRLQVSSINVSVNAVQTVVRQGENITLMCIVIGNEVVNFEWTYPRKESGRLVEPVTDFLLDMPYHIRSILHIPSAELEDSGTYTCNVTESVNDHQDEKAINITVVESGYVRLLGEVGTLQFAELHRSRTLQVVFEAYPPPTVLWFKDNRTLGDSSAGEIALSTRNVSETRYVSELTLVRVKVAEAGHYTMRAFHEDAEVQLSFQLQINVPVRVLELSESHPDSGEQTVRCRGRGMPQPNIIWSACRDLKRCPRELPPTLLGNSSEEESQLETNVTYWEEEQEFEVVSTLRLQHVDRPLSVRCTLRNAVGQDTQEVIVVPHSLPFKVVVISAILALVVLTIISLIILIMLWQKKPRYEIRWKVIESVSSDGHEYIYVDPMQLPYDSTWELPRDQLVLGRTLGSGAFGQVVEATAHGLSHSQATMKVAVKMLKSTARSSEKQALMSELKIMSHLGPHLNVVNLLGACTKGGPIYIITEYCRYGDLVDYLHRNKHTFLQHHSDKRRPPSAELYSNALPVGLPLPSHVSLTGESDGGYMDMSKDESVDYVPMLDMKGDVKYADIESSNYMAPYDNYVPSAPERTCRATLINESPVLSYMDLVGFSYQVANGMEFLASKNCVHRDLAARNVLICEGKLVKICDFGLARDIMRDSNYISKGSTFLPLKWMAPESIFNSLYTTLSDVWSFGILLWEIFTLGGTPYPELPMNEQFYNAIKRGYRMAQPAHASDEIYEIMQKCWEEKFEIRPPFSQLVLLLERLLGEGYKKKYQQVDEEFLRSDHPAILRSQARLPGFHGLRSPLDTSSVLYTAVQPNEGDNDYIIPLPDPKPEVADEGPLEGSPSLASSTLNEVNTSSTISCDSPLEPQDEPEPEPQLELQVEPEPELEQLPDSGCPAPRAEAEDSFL
In assay [3] the test system is A549. Kind of assay: Cell cycle arrest in human A549 cells assessed as accumulation at G2/M phase measured after 24 hrs (reference value: 28.28%). Type of assay: functional.
Assay [4] concerns A549. Kind of assay: Cell cycle arrest in human A549 cells assessed as accumulation at S phase measured after 24 hrs (reference value: 36.58%). Type of assay: functional.
Assay [5] addresses Epidermal growth factor receptor (Homo sapiens, UniProt P00533). The assay is described as follows: Inhibition of EGFR (unknown origin).
Assay [6] deals with Vascular endothelial growth factor receptor 2 (Homo sapiens, UniProt P35968). Kind of assay: Inhibition of VEGFR2 (unknown origin).
Vascular endothelial growth factor receptor 2, sequence (P35968 whole entry): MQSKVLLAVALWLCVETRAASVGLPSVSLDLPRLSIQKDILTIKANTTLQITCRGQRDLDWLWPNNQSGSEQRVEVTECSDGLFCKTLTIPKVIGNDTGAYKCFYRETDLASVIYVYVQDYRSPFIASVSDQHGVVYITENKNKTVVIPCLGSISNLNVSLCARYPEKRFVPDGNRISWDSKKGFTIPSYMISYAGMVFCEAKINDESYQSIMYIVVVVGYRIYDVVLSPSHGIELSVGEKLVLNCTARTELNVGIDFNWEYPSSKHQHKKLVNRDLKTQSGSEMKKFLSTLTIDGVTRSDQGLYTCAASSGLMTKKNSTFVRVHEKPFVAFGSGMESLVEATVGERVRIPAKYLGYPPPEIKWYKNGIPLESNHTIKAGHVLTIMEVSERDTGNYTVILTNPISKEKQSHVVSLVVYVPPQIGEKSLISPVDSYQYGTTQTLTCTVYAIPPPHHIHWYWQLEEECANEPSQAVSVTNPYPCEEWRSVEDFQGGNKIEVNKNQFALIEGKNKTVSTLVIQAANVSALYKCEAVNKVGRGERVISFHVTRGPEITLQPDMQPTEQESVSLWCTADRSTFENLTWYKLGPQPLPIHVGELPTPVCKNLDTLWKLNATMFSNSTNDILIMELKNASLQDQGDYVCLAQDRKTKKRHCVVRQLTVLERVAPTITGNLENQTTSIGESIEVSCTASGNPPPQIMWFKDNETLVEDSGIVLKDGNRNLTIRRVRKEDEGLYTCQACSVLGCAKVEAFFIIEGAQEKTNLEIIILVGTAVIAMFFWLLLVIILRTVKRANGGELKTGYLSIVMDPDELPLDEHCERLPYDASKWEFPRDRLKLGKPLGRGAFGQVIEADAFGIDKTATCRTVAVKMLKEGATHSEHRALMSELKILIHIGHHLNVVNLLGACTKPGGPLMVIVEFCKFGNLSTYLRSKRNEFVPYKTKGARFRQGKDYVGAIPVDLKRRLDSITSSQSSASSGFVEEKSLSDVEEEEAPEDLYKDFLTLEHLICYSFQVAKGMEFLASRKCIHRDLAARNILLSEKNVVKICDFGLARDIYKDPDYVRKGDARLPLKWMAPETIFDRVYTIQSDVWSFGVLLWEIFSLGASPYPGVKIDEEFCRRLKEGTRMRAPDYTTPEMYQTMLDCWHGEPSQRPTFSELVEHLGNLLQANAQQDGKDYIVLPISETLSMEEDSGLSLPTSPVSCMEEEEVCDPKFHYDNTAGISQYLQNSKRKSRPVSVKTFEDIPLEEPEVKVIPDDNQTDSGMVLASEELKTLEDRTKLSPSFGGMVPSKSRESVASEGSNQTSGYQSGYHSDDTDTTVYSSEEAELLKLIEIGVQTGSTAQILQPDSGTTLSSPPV
For assay [7], the system named is A549. The assay is described as follows: Induction of apoptosis in human A549 cells assessed as late apoptotic cells measured after 24 hrs by Annexin-V-FITC/propidium iodide staining based assay (reference value: 0.15%). It is filed as functional.
Assay [8] has as its system A549. Kind of assay: Cell cycle arrest in human A549 cells assessed as accumulation at […] phase measured after 24 hrs (reference value: 42.28%). Type of assay: functional.
For assay [9], the system named is A549. The assay is described as follows: Induction of apoptosis in human A549 cells assessed as early apoptotic cells measured after 24 hrs by Annexin-V-FITC/propidium iodide staining based assay (reference value: 0.39%). It is filed as functional.
Assay [10] addresses Fibroblast growth factor receptor (Homo sapiens, UniProt P22607+P11362+P22455+P21802). Kind of assay: Inhibition of FGFR (unknown origin). Type of assay: protein assay.
Assay [11] has as its system A549. The assay is described as follows: Cell cycle arrest in human A549 cells assessed as accumulation at pre-G1 phase measured after 24 hrs (reference value: 3.83%). It is filed as functional.
For assay [12], the system named is A549. The assay is described as follows: Induction of apoptosis in human A549 cells assessed as necrotic cells measured after 24 hrs by Annexin-V-FITC/propidium iodide staining based assay (reference value: 1.29%). Type of assay: functional.

Molecules are shown by their SMILES.

Epidermal growth factor receptor, sequence (P00533 whole entry): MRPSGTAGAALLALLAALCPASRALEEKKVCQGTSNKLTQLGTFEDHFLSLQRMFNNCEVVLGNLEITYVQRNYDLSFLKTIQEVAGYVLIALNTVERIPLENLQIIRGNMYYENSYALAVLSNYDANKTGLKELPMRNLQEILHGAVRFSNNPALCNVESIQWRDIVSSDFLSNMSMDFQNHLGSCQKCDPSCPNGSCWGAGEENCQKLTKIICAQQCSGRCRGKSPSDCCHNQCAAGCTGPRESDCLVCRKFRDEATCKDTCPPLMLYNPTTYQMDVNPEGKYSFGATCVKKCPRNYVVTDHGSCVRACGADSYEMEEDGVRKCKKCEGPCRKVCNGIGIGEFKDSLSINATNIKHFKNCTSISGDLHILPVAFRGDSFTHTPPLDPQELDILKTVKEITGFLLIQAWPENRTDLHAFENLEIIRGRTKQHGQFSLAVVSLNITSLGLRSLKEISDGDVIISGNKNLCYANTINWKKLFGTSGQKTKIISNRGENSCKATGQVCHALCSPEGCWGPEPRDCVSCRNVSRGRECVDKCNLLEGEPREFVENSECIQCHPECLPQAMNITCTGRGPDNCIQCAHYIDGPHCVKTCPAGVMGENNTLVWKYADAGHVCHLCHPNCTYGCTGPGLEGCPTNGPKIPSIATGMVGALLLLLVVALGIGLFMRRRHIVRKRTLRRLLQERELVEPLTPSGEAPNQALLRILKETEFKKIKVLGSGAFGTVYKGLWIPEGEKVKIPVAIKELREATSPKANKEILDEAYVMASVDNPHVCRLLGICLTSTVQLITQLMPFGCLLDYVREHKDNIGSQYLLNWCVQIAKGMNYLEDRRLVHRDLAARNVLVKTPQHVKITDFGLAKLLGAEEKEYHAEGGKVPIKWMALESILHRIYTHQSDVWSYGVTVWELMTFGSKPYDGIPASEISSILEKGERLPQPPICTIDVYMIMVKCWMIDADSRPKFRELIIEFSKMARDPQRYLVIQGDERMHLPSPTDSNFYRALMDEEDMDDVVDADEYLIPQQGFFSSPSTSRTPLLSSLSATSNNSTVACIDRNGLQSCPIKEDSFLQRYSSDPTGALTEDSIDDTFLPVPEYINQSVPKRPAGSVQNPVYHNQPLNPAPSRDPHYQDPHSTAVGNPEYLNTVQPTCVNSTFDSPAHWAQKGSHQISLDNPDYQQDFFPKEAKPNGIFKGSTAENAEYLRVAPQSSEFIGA

As for `N#Cc1c(-c2ccc(F)cc2)cc(-c2c(O)c3ccccc3oc2=O)nc1N`, the IC50 in the assay with A549 [1] was determined as 22.3 µM.
Same read-out and setting: in the case of `COc1cc(-c2cc(-c3c(O)c4ccccc4oc3=O)nc(O)n2)ccc1O` it was 138 µM; in that of `O=c1oc2ccccc2c(O)c1-c1cc(-c2c(F)cccc2Cl)nc(O)n1`, 5.1 µM.
Still for that read-out and setting: in the case of `O=c1oc2ccccc2c(O)c1-c1cc(-c2ccc(F)cc2)nc(S)n1` it was 21.1 µM; in that of `COc1cccc(C2CC(c3c(O)c4ccccc4oc3=O)=NN2)c1` (stereo not given), 5.91 µM; in that of `COc1cc(C2CC(c3c(O)c4ccccc4oc3=O)=NN2)ccc1O` (stereo not given), 8.4 µM.
On the same count and under the same terms, as for `COc1ccc(C2CC(c3c(O)c4ccccc4oc3=O)=NN2)cc1OC` (stereo not given), the figure is 7.58 µM; as for `COc1cc(-c2cc(-c3c(O)c4ccccc4oc3=O)nc(S)n2)ccc1O`, 36.1 µM.
For the molecule `N#Cc1c(-c2c(F)cccc2Cl)cc(-c2c(O)c3ccccc3oc2=O)nc1N`, the IC50 with A549 [1] came to 46.3 µM.
On the same count and under the same terms, in the case of `COc1cccc(-c2cc(-c3c(O)c4ccccc4oc3=O)nc(S)n2)c1` it was 10.2 µM.
As for `O=c1oc2ccccc2c(O)c1C1=NNC(c2ccc(F)cc2)C1` (stereo not given), the half-maximal inhibitory concentration (IC50) in the assay on A549 [1] turned out to be 1.05 µM; in the assay with WI-38 it was 19.9 µM.
In the case of `O=c1oc2ccccc2c(O)c1C1=NNC(c2c(F)cccc2Cl)C1` (stereo not given), the IC50 in the assay on A549 [1] came out at 23.5 µM.
Same read-out and setting: in the case of `COc1ccc(-c2cc(-c3c(O)c4ccccc4oc3=O)nc(N)c2C#N)cc1OC` it was 7.38 µM; in that of `COc1cc(-c2cc(-c3c(O)c4ccccc4oc3=O)nc(N)c2C#N)ccc1O`, 38.5 µM; in that of `COc1ccc(-c2cc(-c3c(O)c4ccccc4oc3=O)nc(S)n2)cc1OC`, 62.6 µM.
Still for that read-out and setting: as for `COc1ccc(-c2cc(-c3c(O)c4ccccc4oc3=O)nc(O)n2)cc1OC`, the figure is 21.7 µM; as for `COc1cccc(-c2cc(-c3c(O)c4ccccc4oc3=O)nc(O)n2)c1`, 5.55 µM.
For `O=c1oc2ccccc2c(O)c1-c1cc(-c2ccc(F)cc2)nc(O)n1`, the half-maximal inhibitory concentration (IC50) amounted to 2.39 µM with A549 [1] and 37.8 µM in the assay on WI-38.
Regarding `O=c1oc2ccccc2c(O)c1-c1cc(-c2c(F)cccc2Cl)nc(S)n1`, the figures for the IC50 in the assay with A549 [1] and with WI-38 were 3.98 µM and 30.5 µM, respectively.
For `COc1cccc(-c2cc(-c3c(O)c4ccccc4oc3=O)nc(N)c2C#N)c1`, the IC50 in assay [2] was 0.02 µM; in the assay on A549 [1] it was 2.38 µM; in assay [5], 0.033 µM; in assay [6], 0.042 µM; in the assay with WI-38, 53.8 µM; in assay [10], 0.021 µM. The Activity with A549 [3] is on record as 11.32%; with A549 [4], 58.89%; in the assay with A549 [7] it was 22.37%; in the assay on A549 [8], 38.55%; in the assay with A549 [9] it was 4.67%; with A549 [11], 42.14%. Further, the Activity in the assay on A549 [12] came out at 17.12%.
